These results are taken from patent US12129246B1, “Hydroquinazoline derivatives for the treatment of a disease or disorder” (Novartis AG, priority 2023, dated 2024).

Like-named read-outs stand apart in the source and are kept apart here.

The target in one assay is T1, human NPR1 (Homo sapiens, UniProt P16066).
T1 construct: host or cells: CHO-K1
T1 sequence (P16066 33-1061): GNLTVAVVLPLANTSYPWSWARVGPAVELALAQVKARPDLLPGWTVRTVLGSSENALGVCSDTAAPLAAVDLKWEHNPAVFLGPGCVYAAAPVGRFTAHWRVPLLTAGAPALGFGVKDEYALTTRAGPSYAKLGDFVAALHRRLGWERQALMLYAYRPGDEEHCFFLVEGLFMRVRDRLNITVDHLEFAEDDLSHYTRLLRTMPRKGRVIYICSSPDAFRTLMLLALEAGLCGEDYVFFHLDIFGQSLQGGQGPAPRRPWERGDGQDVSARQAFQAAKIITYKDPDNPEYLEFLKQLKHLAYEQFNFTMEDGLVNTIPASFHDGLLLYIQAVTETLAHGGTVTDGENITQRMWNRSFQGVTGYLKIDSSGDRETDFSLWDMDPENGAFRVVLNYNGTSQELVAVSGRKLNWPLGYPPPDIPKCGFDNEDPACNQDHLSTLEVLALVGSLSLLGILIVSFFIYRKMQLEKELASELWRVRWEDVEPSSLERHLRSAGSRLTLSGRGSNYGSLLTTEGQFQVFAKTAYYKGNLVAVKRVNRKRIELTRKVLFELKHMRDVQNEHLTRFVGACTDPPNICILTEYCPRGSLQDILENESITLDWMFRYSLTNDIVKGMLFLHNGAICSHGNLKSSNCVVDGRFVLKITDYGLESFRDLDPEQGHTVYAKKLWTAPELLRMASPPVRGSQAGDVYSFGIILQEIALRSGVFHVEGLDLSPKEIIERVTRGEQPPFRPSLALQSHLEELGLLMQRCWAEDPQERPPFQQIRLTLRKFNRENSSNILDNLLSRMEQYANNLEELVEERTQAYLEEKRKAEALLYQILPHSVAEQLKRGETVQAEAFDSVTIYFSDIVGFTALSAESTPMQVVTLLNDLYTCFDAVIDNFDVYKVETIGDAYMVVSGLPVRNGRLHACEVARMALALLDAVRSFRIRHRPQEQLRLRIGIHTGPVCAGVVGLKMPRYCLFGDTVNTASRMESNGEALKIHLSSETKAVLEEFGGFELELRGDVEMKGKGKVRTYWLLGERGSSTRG
Briefly: Cellular cGMP production assay, human NPR1 expressing CHO-K1 cells (CisBio HTRF). The format is cell-based. The following applies: for AC50: cGMP production, 30 min at 37° C., 12-point dose-response from 30 μM; for Human NPR1 Amax (% of ANP): maximum cGMP production as percentage of the maximum cGMP produced with ANP. The essentials:
(§1)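 Cells receive IBMX (1 mM) assay buffer plus test compound over twelve threefold dilutions starting at 30 μM, and cGMP accumulates for 30 min at 37 °C. Lysates are then incubated one hour at room temperature with d2-labelled cGMP and cryptate-labelled antibody before time-resolved fluorescence reading.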

The target of a further assay is monkey NPR1 (Macaca fascicularis, UniProt A0A7N9DBT9). Kind of assay: Cellular cGMP production assay, monkey NPR1 expressing CHO-K1 cells (CisBio HTRF). Conditions: for Monkey NPR1 Amax (% of ANP): maximum cGMP production as percentage of the maximum cGMP produced with ANP. The format is cell-based. The essentials:
as §1

Where [1] appears, read: cGMP production, monkey NPR1 CHO-K1 cells, 30 min at 37° C., 12-point dose-response from 30 μM, read-out: Monkey NPR1 AC50.

monkey NPR1, sequence (A0A7N9DBT9 entry or part of it): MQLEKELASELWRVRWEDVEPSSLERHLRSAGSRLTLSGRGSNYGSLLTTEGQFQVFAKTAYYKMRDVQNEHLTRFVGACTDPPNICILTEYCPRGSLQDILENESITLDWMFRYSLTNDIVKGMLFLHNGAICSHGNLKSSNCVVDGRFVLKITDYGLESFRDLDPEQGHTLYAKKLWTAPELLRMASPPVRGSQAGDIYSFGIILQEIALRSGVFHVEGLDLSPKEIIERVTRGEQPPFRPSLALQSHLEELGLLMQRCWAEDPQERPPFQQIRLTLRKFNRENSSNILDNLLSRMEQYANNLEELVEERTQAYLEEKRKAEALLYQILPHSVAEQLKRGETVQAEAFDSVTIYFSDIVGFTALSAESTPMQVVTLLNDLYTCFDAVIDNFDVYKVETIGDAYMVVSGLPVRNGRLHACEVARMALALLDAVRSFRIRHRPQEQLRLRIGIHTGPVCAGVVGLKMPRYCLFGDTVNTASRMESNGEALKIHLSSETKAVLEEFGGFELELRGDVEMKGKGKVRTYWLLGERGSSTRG

As for `CC[C@H]([C@H]1CC[C@H](C(=O)O)CC1)N(C)c1nc2c(c(N[C@@H](CN3C4CCCC3CC4)c3cn(C)nc3C)n1)C[C@H](c1cccc(F)c1)CC2` [Compound 102, (1R,4r)-4-((1R)-1-(((6R)-4-(((1R)-2-(8-azabicyclo[3.2.1]octan-8-yl)-1-(1,3-dimethyl-1H-pyrazol-4-yl)ethyl)amino)-6-(3-fluorophenyl)-5,6,7,8-tetrahydroquinazolin-2-yl)(methyl)amino)propyl)cyclohexane-1-carboxylic acid], on human NPR1, half-maximal activity (AC50) was put at 382 nM and the “Human NPR1 Amax (% of ANP)” value is on record as 96.769 % of ANP. Moreover, the AC50 at monkey NPR1 turned out to be 279 nM. Moreover, the “Monkey NPR1 Amax (% of ANP)” value at monkey NPR1 (monkey NPR1 CHO-K1 cells) is 107.819 % of ANP.

For the compound `CC[C@@H](Nc1nc2c(c(N[C@@H](CN3C4CCCC3CCC4)c3ccccc3)n1)C[C@H](c1ccccc1)CC2)[C@H]1CC[C@H](C(=O)O)CC1` [Compound 108, (1R,4r)-4-((R)-1-(((R)-4-(((R)-2-((1S,5S)-9-azabicyclo[3.3.1]nonan-9-yl)-1-phenylethyl)amino)-6-phenyl-5,6,7,8-tetrahydroquinazolin-2-yl)amino)propyl)cyclohexane-1-carboxylic acid], on human NPR1, half-maximal activity (AC50) was put at 410 nM and the “Human NPR1 Amax (% of ANP)” value is 93.072 % of ANP. This compound also had an AC50 at monkey NPR1 of 248 nM. Further, the “Monkey NPR1 Amax (% of ANP)” value at monkey NPR1 (monkey NPR1 CHO-K1 cells) was 99.706 % of ANP.

For the compound `CC[C@H]([C@H]1CC[C@H](C(=O)O)CC1)N(C)c1nc2c(c(N[C@@H](CN3CCC[C@@H](C)C3)c3cnn(C)c3)n1)C[C@H](c1ccccc1)CC2` [Compound 125, (1R,4r)-4-((R)-1-(methyl((R)-4-(((R)-1-(1-methyl-1H-pyrazol-4-yl)-2-((R)-3-methylpiperidin-1-yl)ethyl)amino)-6-phenyl-5,6,7,8-tetrahydroquinazolin-2-yl)amino)propyl)cyclohexane-1-carboxylic acid], the values for the half-maximal activity concentration (AC50) on human NPR1 and on monkey NPR1 (setting [1]) were 619 nM and 410 nM, respectively. The “Human NPR1 Amax (% of ANP)” value at human NPR1 is listed as 106.130 % of ANP. Besides, on monkey NPR1 (monkey NPR1 CHO-K1 cells), the “Monkey NPR1 Amax (% of ANP)” value is reported as 114.072 % of ANP.

For `CC[C@@H](Nc1nc2c(c(N[C@@H](CN3C4CCCC3CCC4)c3cnn(CC)c3)n1)C[C@@H](c1cccc(F)c1)CC2)[C@H]1CC[C@H](C(=O)O)CC1` [Compound 10, (1R,4r)-4-((R)-1-(((S)-4-(((R)-2-((1S,5S)-9-azabicyclo[3.3.1]nonan-9-yl)-1-(1-ethyl-1H-pyrazol-4-yl)ethyl)amino)-6-(3-fluorophenyl)-5,6,7,8-tetrahydroquinazolin-2-yl)amino)propyl)cyclohexane-1-carboxylic acid], at human NPR1, the activity was half-maximal at 91 nM (AC50) and the “Human NPR1 Amax (% of ANP)” value is listed as 96.065 % of ANP. Besides, half-maximal activity at monkey NPR1 (AC50) was put at 73 nM. Further, at monkey NPR1 (monkey NPR1 CHO-K1 cells), the “Monkey NPR1 Amax (% of ANP)” value was 97.058 % of ANP.

Consider `CC[C@@H](Nc1nc2c(c(N[C@H](CN3CCC[C@H](C)C3)c3cnn(C)c3)n1)C[C@](C)(c1cccc(F)c1)CC2)[C@H]1CC[C@H](C(=O)O)CC1` (stereo in doubt) [Compound 130, (1S,4r)-4-((S)-1-(((S)-6-(3-fluorophenyl)-6-methyl-4-(((R)-1-(1-methyl-1H-pyrazol-4-yl)-2-((R)-3-methylpiperidin-1-yl)ethyl)amino)-5,6,7,8-tetrahydroquinazolin-2-yl)amino)propyl)cyclohexane-1-carboxylic acid], for which, at human NPR1, the concentration at half-maximal activity (AC50) was determined as 671 nM and the “Human NPR1 Amax (% of ANP)” value was 88.663 % of ANP. Further, the AC50 at monkey NPR1 (setting [1]) was determined as 205 nM. Moreover, the “Monkey NPR1 Amax (% of ANP)” value at monkey NPR1 (monkey NPR1 CHO-K1 cells) is 114.798 % of ANP.

In the case of `CC[C@@H](Nc1nc2c(c(N[C@@H](CN3CCCCC3)c3cnn(CC)c3)n1)C[C@H](c1ccccc1)CC2)[C@H]1CC[C@H](C(=O)O)CC1` [Compound 45, (1R,4r)-4-((R)-1-(((R)-4-(((R)-1-(1-ethyl-1H-pyrazol-4-yl)-2-(piperidin-1-yl)ethyl)amino)-6-phenyl-5,6,7,8-tetrahydroquinazolin-2-yl)amino)propyl)cyclohexane-1-carboxylic acid], at human NPR1, the activity was half-maximal at 175 nM (AC50) and the “Human NPR1 Amax (% of ANP)” value is 98.472 % of ANP. For the same compound, at monkey NPR1 (setting [1]), the AC50 turned out to be 125 nM. For the same compound, the “Monkey NPR1 Amax (% of ANP)” value on monkey NPR1 (monkey NPR1 CHO-K1 cells) is listed as 99.911 % of ANP.

As for `CC[C@@H](Nc1nc2c(c(N[C@@H](CN3CCC[C@H](C)C3)c3cnn(C)c3)n1)C[C@](C)(c1ccccc1F)CC2)[C@H]1CC[C@H](C(=O)O)CC1` [Compound 20, (1R,4r)-4-((R)-1-(((R)-6-(2-fluorophenyl)-6-methyl-4-(((R)-1-(1-methyl-1H-pyrazol-4-yl)-2-((S)-3-methylpiperidin-1-yl)ethyl)amino)-5,6,7,8-tetrahydroquinazolin-2-yl)amino)propyl)cyclohexane-1-carboxylic acid], at human NPR1, the AC50 came out at 109 nM and the “Human NPR1 Amax (% of ANP)” value is given as 95.253 % of ANP. In addition, the half-maximal activity concentration (AC50) at monkey NPR1 (setting [1]) was determined as 60 nM. On monkey NPR1 (monkey NPR1 CHO-K1 cells), the “Monkey NPR1 Amax (% of ANP)” value is 92.710 % of ANP.

As for `CC[C@@H](Nc1nc2c(c(N[C@@H](CN3CCCC[C@H]3C)c3cnn(CC)c3)n1)C[C@H](c1ccccc1)CC2)[C@H]1CC[C@H](C(=O)O)CC1` [Compound 64, (1R,4r)-4-((R)-1-(((R)-4-(((R)-1-(1-ethyl-1H-pyrazol-4-yl)-2-((R)-2-methylpiperidin-1-yl)ethyl)amino)-6-phenyl-5,6,7,8-tetrahydroquinazolin-2-yl)amino)propyl)cyclohexane-1-carboxylic acid], on human NPR1, the AC50 was 213 nM and the “Human NPR1 Amax (% of ANP)” value is reported as 93.045 % of ANP. At monkey NPR1 (setting [1]), the AC50 was 175 nM. In addition, at monkey NPR1 (monkey NPR1 CHO-K1 cells), the “Monkey NPR1 Amax (% of ANP)” value is 92.911 % of ANP.

In the case of `CC[C@@H](Nc1nc2c(c(N[C@@H](CN3CCCC(C)(C)C3)c3cnn(C)c3)n1)C[C@H](c1ccccc1)CC2)[C@H]1CC[C@H](C(=O)O)CC1` [Compound 95, (1R,4r)-4-((R)-1-(((R)-4-(((R)-2-(3,3-dimethylpiperidin-1-yl)-1-(1-methyl-1H-pyrazol-4-yl)ethyl)amino)-6-phenyl-5,6,7,8-tetrahydroquinazolin-2-yl)amino)propyl)cyclohexane-1-carboxylic acid], the concentration at half-maximal activity (AC50) on human NPR1 is 334 nM; at monkey NPR1 (setting [1]) it was 173 nM. At human NPR1, the “Human NPR1 Amax (% of ANP)” value is reported as 97.121 % of ANP. The “Monkey NPR1 Amax (% of ANP)” value on monkey NPR1 (monkey NPR1 CHO-K1 cells) is recorded as 94.323 % of ANP.

For the compound `C[C@H]1CCCN(C[C@H](Nc2nc(N(C)[C@H](C3CC3)[C@H]3CC[C@H](C(=O)O)CC3)nc3c2C[C@H](c2cccc(F)c2)CC3)c2cnn(C)c2)C1` [Compound 47, (1R,4r)-4-((R)-cyclopropyl(((R)-6-(3-fluorophenyl)-4-(((R)-1-(1-methyl-1H-pyrazol-4-yl)-2-((S)-3-methylpiperidin-1-yl)ethyl)amino)-5,6,7,8-tetrahydroquinazolin-2-yl)(methyl)amino)methyl)cyclohexane-1-carboxylic acid], the AC50 at human NPR1 turned out to be 180 nM; at monkey NPR1 (setting [1]) it was 97 nM. The “Human NPR1 Amax (% of ANP)” value at human NPR1 was 101.280 % of ANP. The “Monkey NPR1 Amax (% of ANP)” value on monkey NPR1 (monkey NPR1 CHO-K1 cells) is on record as 96.550 % of ANP.

Turning to `CC[C@H]([C@H]1CC[C@H](C(=O)O)CC1)N(C)c1nc2c(c(N[C@@H](CN3C4CCCC3CC4)c3ccn(C)n3)n1)C[C@H](c1cccc(F)c1)CC2` [Compound 105, (1R,4r)-4-((1R)-1-(((6R)-4-(((1S)-2-(8-azabicyclo[3.2.1]octan-8-yl)-1-(1-methyl-1H-pyrazol-3-yl)ethyl)amino)-6-(3-fluorophenyl)-5,6,7,8-tetrahydroquinazolin-2-yl)(methyl)amino)propyl)cyclohexane-1-carboxylic acid], the AC50 was determined as 396 nM on human NPR1 and 272 nM at monkey NPR1. The “Human NPR1 Amax (% of ANP)” value on human NPR1 is 99.945 % of ANP. The “Monkey NPR1 Amax (% of ANP)” value on monkey NPR1 (monkey NPR1 CHO-K1 cells) is given as 97.086 % of ANP.
